Source: patent US20080167284A1, “Hair And/Or Scalp Care Compositions Incorporating Visnadin” (priority 2005, published 2008)

Columns and labels:
[1] = target: T1, Cannabinoid Receptor 1 (CB1R), human recombinant CB1 (Homo sapiens, UniProt P21554); test: CB1R radioligand experiment on membranes from HEK293 cells over-expressing human recombinant CB1; assay type: binding; conditions: human recombinant CB1, radioligand [3H]CP-55,490, n=3
T1 construct: purchased Perkin-Elmer; host or cells: HEK293
Experimental: (§1) Visnadin was evaluated for its ability to activate Cannabinoid Receptor 1 (CB1R) and Cannabinoid Receptor 2 (CB2R).
CB1R experiments were performed using membranes from HEK293 cells over-expressing human recombinant CB1, as described by the manufacturer (Perkin-Elmer) and using [3H]CP-55,490 as the radioligand.
(§2) Data of active compounds are expressed in Ki (mM) and are means±SEM of n=3 determinations.
(§3) The values that are stated for each of the compounds is an EC50 value. This is defined as the molar concentration of an agonist, which produces 50% of the maximum possible response for that agonist. The values documented are in micromolar units.

[2] = target: T2, Cannabinoid Receptor 2 (CB2R), human recombinant CB2 (Homo sapiens, UniProt P34972); test: CB2R radioligand experiment on membranes from HEK293 cells over-expressing human recombinant CB2; assay type: binding; conditions: human recombinant CB2, radioligand [3H]CP-55,495, n=3
T2 construct: purchased Perkin-Elmer; host or cells: HEK293
T2 sequence (P34972 whole entry): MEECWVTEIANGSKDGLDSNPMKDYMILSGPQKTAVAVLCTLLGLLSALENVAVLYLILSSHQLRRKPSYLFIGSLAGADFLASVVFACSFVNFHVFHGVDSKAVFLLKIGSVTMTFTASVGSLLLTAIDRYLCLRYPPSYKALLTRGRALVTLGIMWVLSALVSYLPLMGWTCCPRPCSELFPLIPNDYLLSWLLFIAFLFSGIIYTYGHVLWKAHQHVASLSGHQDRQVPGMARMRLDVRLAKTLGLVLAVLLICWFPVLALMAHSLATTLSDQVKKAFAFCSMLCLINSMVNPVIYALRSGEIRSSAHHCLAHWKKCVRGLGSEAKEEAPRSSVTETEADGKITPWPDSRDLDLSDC
Experimental: as §1
CB2R experiments were performed using membranes from HEK293 cells over-expressing human recombinant CB2, as described by the manufacturer (Perkin-Elmer), and using [3H]CP-55,495 as the radioligand.
as §2, §3

T1 sequence (P21554 whole entry): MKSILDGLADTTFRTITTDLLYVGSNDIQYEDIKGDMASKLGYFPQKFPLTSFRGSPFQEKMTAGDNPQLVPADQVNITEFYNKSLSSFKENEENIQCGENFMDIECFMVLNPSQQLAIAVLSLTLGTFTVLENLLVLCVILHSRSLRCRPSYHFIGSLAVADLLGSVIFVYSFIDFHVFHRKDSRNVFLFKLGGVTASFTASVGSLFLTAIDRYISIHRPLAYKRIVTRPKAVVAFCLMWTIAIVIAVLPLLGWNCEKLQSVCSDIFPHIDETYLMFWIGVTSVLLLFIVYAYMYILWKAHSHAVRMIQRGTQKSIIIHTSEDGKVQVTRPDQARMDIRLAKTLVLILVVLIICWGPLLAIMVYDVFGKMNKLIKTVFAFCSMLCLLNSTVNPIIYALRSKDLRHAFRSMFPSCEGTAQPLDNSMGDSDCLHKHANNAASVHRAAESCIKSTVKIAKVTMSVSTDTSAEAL

- EC50 [1]: > 25 µM
- EC50 [2]: 14.1 µM
Compound: CCC(C)C(=O)O[C@@H]1[C@H](OC(C)=O)c2c(ccc3ccc(=O)oc23)OC1(C)C (some centres unmarked) [visnadin]
